# From ChEMBL document CHEMBL1201862, “PubChem BioAssay data set” (2004)
# Active and inactive are the calls of the source. For most assays here, no stated cut-off is given here; in the data, actives have a measured EC50 and inactives only a lower limit.
# What was measured:
# H4 = assay: Luminescence Cell-Based Dose Response HTS to Identify Activators of 5'UTR Stem-Loop Driven Prion Protein mRNA Translation in H4 Neuroglioblastoma Cells. [Related pubchem assays: 1829 (Project Summary), 1814 (Primary HTS)]; format: functional; details: Homo sapiens
# [1] = Luminescence Cell-Based Dose Response to Identify Activators of Luciferase Translation or Activity in H4-C Neuroglioblastoma Cells. [Related pubchem assays: 1829 (Project Summary), 1814 (Primary HTS)]; format: functional
# [2] = Luminescence Cell-Based Dose Confirmation HTS to Identify Activators of 5'UTR Stem-Loop Driven Alpha-Synuclein mRNA Translation in H4 Neuroglioblastoma Cells. [Related pubchem assays: 1829 (Project Summary), 1814 (Primary HTS)]; format: functional
# [3] = Luminescence Cell-Based Dose Response to Identify Activators of 5'UTR Stem-Loop Driven Prion Protein mRNA Translation in H4-C Neuroglioblastoma Cells. [Related pubchem assays: 1829 (Project Summary), 1814 (Primary HTS)]; format: functional
# [4] = Luminescence Cell-Based Dose Confirmation to Identify Activators of 5'UTR Stem-Loop Driven Alpha-Synuclein mRNA Translation in H4 Neuroglioblastoma Cells. [Related pubchem assays: 1829 (Project Summary), 1814 (Primary HTS)]; format: functional
# [5] = Luminescence Cell-Based Dose Response HTS to Identify Activators of Luciferase Translation or Activity in H4 […] Cells. [Related pubchem assays: 1829 (Project Summary), 1814 (Primary HTS)]; format: functional
# [6] = molecular target: T1, Corticotropin-releasing factor receptor 2/Corticotropin-releasing factor-binding protein (Homo sapiens, UniProt P24387+Q13324); assay: activators of CRF receptor 2 with binding protein – uHTS hits, confirmation (AID 602473); format: functional; details: read-out: EC50_Mean
# T1 sequence (Q13324 whole entry): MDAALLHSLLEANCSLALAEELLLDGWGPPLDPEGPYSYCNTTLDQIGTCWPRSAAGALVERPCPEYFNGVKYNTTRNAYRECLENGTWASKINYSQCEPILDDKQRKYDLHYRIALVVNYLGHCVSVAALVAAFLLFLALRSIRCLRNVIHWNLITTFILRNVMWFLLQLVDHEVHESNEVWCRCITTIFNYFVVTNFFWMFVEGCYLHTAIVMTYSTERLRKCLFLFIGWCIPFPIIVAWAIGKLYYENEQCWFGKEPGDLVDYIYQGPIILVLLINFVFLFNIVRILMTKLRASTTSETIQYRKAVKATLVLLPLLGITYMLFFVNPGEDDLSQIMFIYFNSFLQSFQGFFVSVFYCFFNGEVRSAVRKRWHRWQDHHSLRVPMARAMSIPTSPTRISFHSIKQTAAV
# T1 sequence (P24387 whole entry): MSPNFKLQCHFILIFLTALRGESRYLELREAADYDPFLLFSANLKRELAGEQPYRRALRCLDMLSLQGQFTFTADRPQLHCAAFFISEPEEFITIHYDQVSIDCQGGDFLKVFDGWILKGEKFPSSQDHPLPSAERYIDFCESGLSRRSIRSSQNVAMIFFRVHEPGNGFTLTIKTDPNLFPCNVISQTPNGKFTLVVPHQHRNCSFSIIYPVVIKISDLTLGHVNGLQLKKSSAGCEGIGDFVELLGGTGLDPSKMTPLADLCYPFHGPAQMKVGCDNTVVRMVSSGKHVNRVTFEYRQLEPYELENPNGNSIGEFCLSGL
# [7] = Luminescence-based cell-based high throughput dose response assay to identify activators of the DAF-12 from the parasite S. stercoralis (ssDAF-12).; format: functional
# [8] = molecular target: T2, RNA-binding protein pos-1 (Caenorhabditis elegans, UniProt G5EF15); assay: inhibitors of POS-1/mex-3 RNA binding, dose response, biochemical, fluorescence polarization (AID 1964);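 further: purified POS-1 fused to maltose binding protein made in E. coli; potency of compounds blocking POS-1 binding to fluorescent RNA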
# T2 sequence (G5EF15 whole entry): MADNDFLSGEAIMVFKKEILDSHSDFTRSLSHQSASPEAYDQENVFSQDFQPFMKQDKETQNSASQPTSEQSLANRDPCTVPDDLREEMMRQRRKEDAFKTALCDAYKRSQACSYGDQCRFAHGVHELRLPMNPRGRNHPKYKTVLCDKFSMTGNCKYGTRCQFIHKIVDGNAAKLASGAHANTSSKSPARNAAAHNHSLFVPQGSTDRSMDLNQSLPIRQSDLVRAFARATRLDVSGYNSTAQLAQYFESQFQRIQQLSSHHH
# [9] = molecular target: T3, Oxysterols receptor LXR-beta (Homo sapiens, UniProt P55055); assay: LXR agonists, Gal4 luciferase reporter, dose response, counter-screen for ssDAF-12 agonist project, cell-based, luminescence, HEK293, S. stercoralis campaign (AID 720737); format: functional; details: read-out: IC50 (the source's name)
# T3 sequence (P55055 whole entry): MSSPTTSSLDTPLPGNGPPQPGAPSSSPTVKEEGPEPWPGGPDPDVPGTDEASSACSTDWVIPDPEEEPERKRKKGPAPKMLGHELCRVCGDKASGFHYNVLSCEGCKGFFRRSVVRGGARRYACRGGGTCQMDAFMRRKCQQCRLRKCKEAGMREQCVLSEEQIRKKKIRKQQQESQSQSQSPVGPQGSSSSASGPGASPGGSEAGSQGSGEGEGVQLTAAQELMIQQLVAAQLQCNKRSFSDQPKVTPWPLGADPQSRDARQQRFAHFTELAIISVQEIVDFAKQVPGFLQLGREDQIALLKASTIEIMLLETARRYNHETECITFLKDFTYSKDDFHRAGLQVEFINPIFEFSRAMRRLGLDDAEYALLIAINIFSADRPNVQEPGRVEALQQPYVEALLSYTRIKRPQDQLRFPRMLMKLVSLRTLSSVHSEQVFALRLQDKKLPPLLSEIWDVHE
# [10] = molecular target: T1, Corticotropin-releasing factor receptor 2/Corticotropin-releasing factor-binding protein; assay: Dose Response confirmation of uHTS hits for small molecule antagonists of the CRF-binding protein and CRF-R2 receptor complex.; format: functional; details: read-out: IC50_Mean
# [11] = molecular target: T4, Zinc finger protein mex-5 (Caenorhabditis elegans, UniProt Q9XUB2); assay: MEX-5/TCR-2 RNA interaction inhibitors, dose response, biochemical, C. elegans, fluorescence polarization (AID 1960)
# T4 sequence (Q9XUB2 whole entry): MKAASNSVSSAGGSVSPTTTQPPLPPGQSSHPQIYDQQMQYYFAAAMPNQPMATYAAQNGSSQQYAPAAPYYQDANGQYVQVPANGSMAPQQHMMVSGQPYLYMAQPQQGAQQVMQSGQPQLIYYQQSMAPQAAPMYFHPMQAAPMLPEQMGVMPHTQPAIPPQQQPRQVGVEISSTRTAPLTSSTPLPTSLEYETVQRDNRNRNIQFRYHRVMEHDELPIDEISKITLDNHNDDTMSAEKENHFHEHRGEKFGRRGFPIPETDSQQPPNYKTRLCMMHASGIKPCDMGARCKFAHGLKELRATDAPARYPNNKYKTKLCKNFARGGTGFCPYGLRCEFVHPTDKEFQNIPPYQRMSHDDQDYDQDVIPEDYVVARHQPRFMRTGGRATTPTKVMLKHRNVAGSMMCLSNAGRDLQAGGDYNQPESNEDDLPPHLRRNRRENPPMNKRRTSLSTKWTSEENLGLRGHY
# [12] = molecular target: T5, Replicative DNA helicase DnaB (Mycobacterium tuberculosis, UniProt P9WMR3); assay: DnaB intein splicing inhibitors, dose response, biochemical, cell-free fluorescence (AID 449749); format: functional
# T5 sequence (P9WMR3 whole entry): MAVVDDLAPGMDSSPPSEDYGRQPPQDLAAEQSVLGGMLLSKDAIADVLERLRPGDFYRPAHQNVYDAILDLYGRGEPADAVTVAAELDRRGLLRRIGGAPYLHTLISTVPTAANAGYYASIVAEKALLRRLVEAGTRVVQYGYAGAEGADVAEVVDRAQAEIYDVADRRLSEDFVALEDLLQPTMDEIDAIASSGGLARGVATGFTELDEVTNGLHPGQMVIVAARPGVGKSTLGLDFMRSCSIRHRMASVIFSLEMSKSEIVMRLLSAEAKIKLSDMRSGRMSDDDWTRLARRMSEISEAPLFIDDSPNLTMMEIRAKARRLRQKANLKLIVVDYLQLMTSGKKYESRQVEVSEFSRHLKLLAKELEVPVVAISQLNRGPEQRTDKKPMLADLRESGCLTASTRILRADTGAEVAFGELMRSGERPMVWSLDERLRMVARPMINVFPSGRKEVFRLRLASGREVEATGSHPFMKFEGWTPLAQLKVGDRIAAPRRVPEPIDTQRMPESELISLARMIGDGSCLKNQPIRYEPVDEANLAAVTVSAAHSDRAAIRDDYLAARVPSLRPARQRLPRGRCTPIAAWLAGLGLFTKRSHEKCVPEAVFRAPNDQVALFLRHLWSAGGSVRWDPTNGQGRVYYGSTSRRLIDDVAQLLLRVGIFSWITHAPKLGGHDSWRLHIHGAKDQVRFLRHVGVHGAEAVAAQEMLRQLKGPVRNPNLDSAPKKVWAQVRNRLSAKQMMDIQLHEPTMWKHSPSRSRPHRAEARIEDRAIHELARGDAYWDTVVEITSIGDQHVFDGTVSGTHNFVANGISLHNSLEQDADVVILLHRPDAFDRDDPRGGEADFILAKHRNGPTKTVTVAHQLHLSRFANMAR
# [13] = molecular target: T6, Heat shock factor protein 1 (Mus musculus, UniProt P38532); assay: HSF1 potentiators in luciferase reporter cells, confirmation, cell-based, NIH3T3, luminescence, dose retest (AID 435004); format: functional;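 further: stress induced by proteasome inhibitor MG132 added 30 min after compound; luciferase reporter driven by HSF1 response element in NIH3T3 cells; actives raise luminescence as potentiators of the MG132 stress response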
# T6 sequence (P38532 whole entry): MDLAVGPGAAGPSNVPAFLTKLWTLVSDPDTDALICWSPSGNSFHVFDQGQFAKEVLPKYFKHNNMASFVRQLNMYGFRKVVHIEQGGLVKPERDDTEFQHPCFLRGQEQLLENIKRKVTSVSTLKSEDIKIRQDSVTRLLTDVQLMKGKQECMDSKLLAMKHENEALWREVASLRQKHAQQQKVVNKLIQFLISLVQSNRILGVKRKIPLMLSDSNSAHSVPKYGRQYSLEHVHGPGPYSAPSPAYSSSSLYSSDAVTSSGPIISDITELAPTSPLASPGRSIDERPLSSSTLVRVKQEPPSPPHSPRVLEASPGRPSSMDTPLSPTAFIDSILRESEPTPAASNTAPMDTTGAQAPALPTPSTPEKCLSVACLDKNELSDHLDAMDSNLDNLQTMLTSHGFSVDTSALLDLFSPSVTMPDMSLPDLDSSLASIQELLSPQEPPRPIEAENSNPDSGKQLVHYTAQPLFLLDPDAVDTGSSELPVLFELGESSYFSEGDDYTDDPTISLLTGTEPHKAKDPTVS
# Protein RecA = molecular target: T7, Protein RecA (Mycobacterium tuberculosis, UniProt P9WHJ3); assay: Fluorescence Cell-Free Homogeneous Dose Retest to Identify Inhibitors of RecA-Intein Splicing Activity. [Related pubchem assays (depositor defined):AID2097, AID2223, AID489010, AID492950]; format: functional
# T7 sequence (P9WHJ3 whole entry): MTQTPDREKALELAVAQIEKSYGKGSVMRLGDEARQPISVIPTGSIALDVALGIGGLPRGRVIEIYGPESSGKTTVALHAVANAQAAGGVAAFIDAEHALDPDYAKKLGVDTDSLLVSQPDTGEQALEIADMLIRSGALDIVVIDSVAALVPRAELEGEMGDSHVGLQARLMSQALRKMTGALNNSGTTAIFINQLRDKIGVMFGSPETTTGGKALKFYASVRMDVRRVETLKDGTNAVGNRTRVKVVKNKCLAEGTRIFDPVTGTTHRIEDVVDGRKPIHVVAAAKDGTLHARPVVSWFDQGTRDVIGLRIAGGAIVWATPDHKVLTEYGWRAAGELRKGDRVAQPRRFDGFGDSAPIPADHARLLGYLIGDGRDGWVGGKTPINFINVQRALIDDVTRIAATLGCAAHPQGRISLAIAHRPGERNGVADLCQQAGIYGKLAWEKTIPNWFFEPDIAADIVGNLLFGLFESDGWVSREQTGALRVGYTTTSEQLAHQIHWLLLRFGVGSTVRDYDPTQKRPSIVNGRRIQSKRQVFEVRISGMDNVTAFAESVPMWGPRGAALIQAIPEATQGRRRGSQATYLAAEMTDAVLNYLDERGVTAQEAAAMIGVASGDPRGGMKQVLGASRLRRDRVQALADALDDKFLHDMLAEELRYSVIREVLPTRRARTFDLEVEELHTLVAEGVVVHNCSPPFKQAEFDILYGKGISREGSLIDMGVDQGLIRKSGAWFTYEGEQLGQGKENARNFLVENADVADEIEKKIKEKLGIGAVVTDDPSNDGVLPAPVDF
# [14] = cytotoxicity in KRAS-transformed pancreatic duct cells, primary screen, cell-based, fluorescence, HTS (AID 431); format: functional; details: Homo sapiens;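 further: cell line used: HPDE-C7K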
# [15] = cytotoxicity in HPDE-C7 cells, cell-based, fluorescence, HTS (AID 430); format: functional; details: Homo sapiens
structure (smiles),measurement,setting,value
O=C(/C=C/c1ccco1)NC1=NCCS1,EC50,H4,< 0.1 µM (active)
same,EC50,[1],0.323 µM (active)
same,EC50,[2],< 0.1 µM (active)
same,EC50,[3],0.519 µM (active)
same,EC50,[4],0.428 µM (active)
same,EC50,[5],0.484 µM (active)
CCCn1nc(C(=O)Nc2ccc3nc(C)sc3c2)c2ccccc2c1=O,EC50,[6],> 53 µM (inactive)
same,IC50,[7],> 67.5 µM (inactive)
same,EC50,[8],> 300 µM (not active)
same,EC50,[9],> 67.5 µM (inactive)
same,IC50,[10],> 47.1 µM (inactive)
same,EC50,[11],> 300 µM (not active)
CC(C)(C)NC(=O)CSc1ncnc2c1nnn2Cc1ccccc1Cl,AC50,[12],6.8 µM (active)
same,EC50,[13],13.3 µM (active)
same,EC50,Protein RecA,8.37 µM (active)
same,EC50,[14],14.1 µM (active)
same,EC50,[15],11.8 µM (active)
